Measurements from the supplement of paper PMC13380429.

Legend:
[1] = system: A549-ACE2 infected with SARS-CoV-2; assay: cell count relative to DMSO; higher = less toxic; conditions: 24 h
[2] = system: Caco-2; assay: cell viability relative to DMSO; higher = less toxic; conditions: 72 h
[3] = system: Calu-3; assay: as above; conditions: 72 h
[4] = system: HepG2; assay: as above; conditions: 72 h
[5] = system: U2OS; assay: as above; conditions: 72 h
[6] = system: Vero E6; assay: as above; conditions: 72 h
[7] = system: A549-ACE2 infected with SARS-CoV-2; assay: SARS-CoV-2 infection rate relative to DMSO; higher = more infection; conditions: 24 h
[8] = system: A549-ACE2; assay: phospholipidosis EC50; higher = less potent phospholipidosis inducer
[9] = system: A549-ACE2; assay: drug-induced phospholipidosis relative to tamoxifen; higher = more phospholipidosis
[10] = system: A549-ACE2 infected with SARS-CoV-2; assay: morphology score (similarity to uninfected cells); higher = more like uninfected cells; conditions: 24 h
[11] = system: Caco-2; assay: relative viability EC50 (midpoint between 100% and the lowest measured viability); higher = less toxic; conditions: 72 h
[12] = system: Calu-3; assay: as above; conditions: 72 h
[13] = system: U2OS; assay: as above; conditions: 72 h
[14] = system: Vero E6; assay: as above; conditions: 72 h
[15] = system: Caco-2; assay: drug sensitivity score (DSS) for viability; higher = more toxic; extreme values may be limits of the assay; conditions: 72 h
[16] = system: Calu-3; assay: as above; conditions: 72 h
[17] = system: HepG2; assay: as above; conditions: 72 h
[18] = system: U2OS; assay: as above; conditions: 72 h
[19] = system: Vero E6; assay: as above; conditions: 72 h
[20] = system: HepG2; assay: relative viability EC50 (midpoint between 100% and the lowest measured viability); higher = less toxic; conditions: 72 h

CC(Cc1ccccc1)NCCC(c1ccccc1)c1ccccc1 (centres undefined) [prenylamine]
Conditions | SARS-CoV-2 infection rate [%] | cell count [%] | cell viability [%] | morphology score | phospholipidosis EC50 [µM]
[1], 0.3 µM | – | 103 | – | – | –
[1], 3 µM | – | 119 | – | – | –
[1], 10 µM | – | 123 | – | – | –
[1], 30 µM | – | 19 | – | – | –
[2], 1 nM | – | – | 112 | – | –
[2], 10 nM | – | – | 101 | – | –
[2], 100 nM | – | – | 93.6 | – | –
[2], 1000 nM | – | – | 100 | – | –
[2], 10000 nM | – | – | 87.1 | – | –
[3], 1 nM | – | – | 103 | – | –
[3], 10 nM | – | – | 106 | – | –
[3], 100 nM | – | – | 95.3 | – | –
[3], 1000 nM | – | – | 106 | – | –
[3], 10000 nM | – | – | 17.9 | – | –
[4], 1 nM | – | – | 110 | – | –
[4], 10 nM | – | – | 110 | – | –
[4], 100 nM | – | – | 101 | – | –
[4], 1000 nM | – | – | 107 | – | –
[4], 10000 nM | – | – | 64.5 | – | –
[5], 1 nM | – | – | 97.2 | – | –
[5], 10 nM | – | – | 94.7 | – | –
[5], 100 nM | – | – | 97.3 | – | –
[5], 1000 nM | – | – | 100 | – | –
[5], 10000 nM | – | – | 85.7 | – | –
[6], 1 nM | – | – | 103 | – | –
[6], 10 nM | – | – | 110 | – | –
[6], 100 nM | – | – | 102 | – | –
[6], 1000 nM | – | – | 102 | – | –
[6], 10000 nM | – | – | 89.3 | – | –
[7], 0.3 µM | 108 | – | – | – | –
[7], 3 µM | 47 | – | – | – | –
[7], 10 µM | 6 | – | – | – | –
[7], 30 µM | 43 | – | – | – | –
[8], 24 h | – | – | – | – | 3.65
[8], 48 h | – | – | – | – | 4.62
[8], 72 h | – | – | – | – | 6.27
[10], 0.3 µM | – | – | – | -0.03 | –
[10], 3 µM | – | – | – | 0.78 | –
[10], 10 µM | – | – | – | 0.92 | –
[10], 30 µM | – | – | – | -0.09 | –

drug-induced phospholipidosis [%], [9]
Conditions | 0.3 µM | 0.833333 µM | 3.33333 µM | 6.66667 µM | 10 µM
24 h | 2.14 | 1.61 | 44.8 | 88.2 | 97.4
48 h | 3.35 | 0.12 | 33.5 | 85 | 103
72 h | 3.19 | 2.37 | 29.7 | 74.3 | 100

Conditions | drug sensitivity score | relative viability EC50 [µM]
[11] | – | > 10
[12] | – | 3.51
[13] | – | > 10
[14] | – | > 10
[15] | 0.1 | –
[16] | 4.1 | –
[17] | 1.3 | –
[18] | 0.2 | –
[19] | 0 | –

O=C(NCc1ccccc1)c1csc(Nc2ccncn2)n1 [thiazovivin]
Conditions | SARS-CoV-2 infection rate, [7] [%] | cell count, [1] [%] | cell viability, [2] [%] | cell viability, [3] [%] | cell viability, [4] [%] | cell viability, [5] [%] | cell viability, [6] [%] | morphology score, [10]
1 nM | – | – | 95.1 | 102 | 90.1 | 105 | 101 | –
10 nM | – | – | 96.8 | 95.5 | 97.8 | 100 | 101 | –
0.1 µM | 98 | 115 | – | – | – | – | – | 0.31
100 nM | – | – | 97.3 | 109 | 101 | 100 | 99.1 | –
0.3 µM | 101 | 108 | – | – | – | – | – | 0.18
1 µM | 98 | 90 | – | – | – | – | – | 0.16
1000 nM | – | – | 100 | 126 | 93.8 | 93.9 | 88.7 | –
3 µM | 108 | 88 | – | – | – | – | – | -0.1
10000 nM | – | – | 88.4 | 138 | 73.9 | 85.9 | 64.7 | –

drug-induced phospholipidosis [%], [9]
Conditions | 0.3 µM | 0.833333 µM | 3.33333 µM | 6.66667 µM | 10 µM | 30 µM
24 h | -0.85 | -1.1 | -1.59 | -0.13 | 1.72 | 4.97
48 h | -1.39 | -3.9 | -3.92 | -1.45 | -1.05 | 3.79
72 h | -0.652 | -4.81 | -3.84 | -1.69 | 1.23 | –

Conditions | drug sensitivity score | relative viability EC50 [µM]
[11] | – | > 10
[12] | – | > 10
[13] | – | > 10
[15] | 0 | –
[16] | 0 | –
[17] | 1.9 | –
[18] | 0.6 | –
[19] | 3.3 | –

CCn1c2ccccc2c2cc(Nc3ccnc(NCCCN4CCOCC4)n3)ccc21 [EHop-016]
Conditions | SARS-CoV-2 infection rate [%] | cell count [%] | cell viability [%] | morphology score | phospholipidosis EC50 [µM]
[1], 0.1 µM | – | 93 | – | – | –
[1], 0.3 µM | – | 100 | – | – | –
[1], 1 µM | – | 103 | – | – | –
[1], 3 µM | – | 118 | – | – | –
[2], 1 nM | – | – | 91.4 | – | –
[2], 10 nM | – | – | 93.5 | – | –
[2], 100 nM | – | – | 97.4 | – | –
[2], 1000 nM | – | – | 85.5 | – | –
[2], 10000 nM | – | – | 31.2 | – | –
[3], 1 nM | – | – | 95 | – | –
[3], 10 nM | – | – | 98 | – | –
[3], 100 nM | – | – | 100 | – | –
[3], 1000 nM | – | – | 99 | – | –
[3], 10000 nM | – | – | 6.7 | – | –
[4], 1 nM | – | – | 103 | – | –
[4], 10 nM | – | – | 104 | – | –
[4], 100 nM | – | – | 98.5 | – | –
[4], 1000 nM | – | – | 98 | – | –
[4], 10000 nM | – | – | 28.1 | – | –
[5], 1 nM | – | – | 100 | – | –
[5], 10 nM | – | – | 94.1 | – | –
[5], 100 nM | – | – | 101 | – | –
[5], 1000 nM | – | – | 91 | – | –
[5], 10000 nM | – | – | 34.6 | – | –
[6], 1 nM | – | – | 102 | – | –
[6], 10 nM | – | – | 97.2 | – | –
[6], 100 nM | – | – | 88.9 | – | –
[6], 1000 nM | – | – | 94.3 | – | –
[6], 10000 nM | – | – | 64.3 | – | –
[7], 0.1 µM | 98 | – | – | – | –
[7], 0.3 µM | 97 | – | – | – | –
[7], 1 µM | 70 | – | – | – | –
[7], 3 µM | 23 | – | – | – | –
[8], 24 h | – | – | – | – | 0.895
[8], 48 h | – | – | – | – | 1.39
[8], 72 h | – | – | – | – | 3.13
[10], 0.1 µM | – | – | – | -0.12 | –
[10], 0.3 µM | – | – | – | -0.03 | –
[10], 1 µM | – | – | – | 0.46 | –
[10], 3 µM | – | – | – | 0.79 | –

drug-induced phospholipidosis [%], [9]
Conditions | 0.3 µM | 0.833333 µM | 3.33333 µM | 6.66667 µM | 10 µM | 30 µM
24 h | 3.51 | 16.7 | 47 | 47.4 | 52.6 | 11.5
48 h | 4.02 | 8.22 | 56.9 | 63.9 | 72.1 | 40.9
72 h | 3.76 | 2.65 | 48.2 | 69.6 | 81.3 | –

Conditions | drug sensitivity score | relative viability EC50 [µM]
[11] | – | 1.69
[12] | – | 3.09
[13] | – | 2.06
[15] | 6.1 | –
[16] | 5.3 | –
[17] | 4.2 | –
[18] | 5.1 | –
[19] | 2.6 | –
[20] | – | 2.96

CCN(CC)C(=S)SSC(=S)N(CC)CC [disulfiram]
Conditions | SARS-CoV-2 infection rate, [7] [%] | cell count, [1] [%] | cell viability, [2] [%] | cell viability, [3] [%] | cell viability, [4] [%] | cell viability, [5] [%] | cell viability, [6] [%] | morphology score, [10]
1 nM | – | – | 103 | 101 | 104 | 100 | 108 | –
10 nM | – | – | 90.1 | 90.5 | 103 | 99.6 | 104 | –
100 nM | – | – | 19.1 | 94.7 | 53.2 | 99 | 101 | –
0.3 µM | 84 | 105 | – | – | – | – | – | 0.44
1000 nM | – | – | 9.6 | 36.9 | 13.7 | 78 | 89.3 | –
3 µM | 76 | 106 | – | – | – | – | – | 0.45
10 µM | 27 | 63 | – | – | – | – | – | 0.51
10000 nM | – | – | 75.3 | 106 | 95 | 94.6 | 99.6 | –
30 µM | 32 | 58 | – | – | – | – | – | 0.35

drug-induced phospholipidosis [%], [9]
Conditions | 0.3 µM | 0.833333 µM | 3.33333 µM | 6.66667 µM | 10 µM | 30 µM
24 h | 2.43 | -1.42 | 2.59 | -0.54 | 2.87 | 7.83
48 h | – | – | – | -0.28 | 1.88 | –
72 h | – | – | – | 1.75 | 1.77 | –

Conditions | drug sensitivity score | relative viability EC50 [µM]
[11] | – | 0.0314
[12] | – | > 10
[13] | – | > 10
[14] | – | > 10
[15] | 27.5 | –
[16] | 0 | –
[17] | 21.4 | –
[18] | 0.2 | –
[19] | 0 | –
[20] | – | 0.0936
